Holding throughout (test): growth of human tumour cells (NCI), 48 h
The subject of test [1] is LOX IMVI.
Test [2] has as its system SN12C.
For test [3], the system named is OVCAR-4.
In test [4] the test system is NCI-H226.
Test [5] has as its system HCC 2998.
In test [6] the test system is MDA-MB-435.
The test system of test [7] is MCF7.
Test [8] relates to SF-268.
The subject of test [9] is SW-620.
Test [10] deals with U-251.
The subject of test [11] is UO-31.
Test [12] has as its system COLO 205.
For test [13], the system named is UACC-62.
Test [14] concerns CCRF-CEM.
The test system of test [15] is HL-60.
Test [16] has as its system OVCAR-5.
Test [17] relates to A498.
For test [18], the system named is Hs-578T.
The test system of test [19] is ACHN.
Test [20] deals with A549.

Each structure is given as a SMILES string.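 Test compounds were applied to cells in 96-well plates for 48 hours at 5 doses. The concentration for 50% growth inhibition is given as GI50.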 Active and inactive are the calls of the source. Cut-off read from the data, not from the text of the source: active = GI50 up to about 1.1 µM and inactive = higher.

For `Oc1c(Cl)ccc2cccnc12`, the GI50 was 1.94 µM (inactive) in test [1]; 4.58 µM (inactive) in test [2]; 3.21 µM (inactive) in test [3]; 5.12 µM (inactive) in [4]; 12.7 µM (inactive) in [5]; 10.1 µM (inactive) in test [6]. Besides, the GI50 in test [7] was 1.02 µM (active); in [8] it was 2.72 µM (inactive); in [9], 2.53 µM (inactive); in [10], 3.69 µM (inactive); in test [11] it was 3.35 µM (inactive); in test [12] it was 4.25 µM (inactive). For the same molecule, the GI50 in [13] was 2.24 µM (inactive); in test [14], 0.347 µM (active); in test [15], 0.28 µM (active); in test [16], 5.87 µM (inactive); in [17] it was 4.81 µM (inactive); in test [18] it was 4.32 µM (inactive). Besides, the GI50 in test [19] was 3.61 µM (inactive); in [20], 3.96 µM (inactive).
In the case of `Cc1coc2c1CC1OC1(C)CCC1OC1(C)C2` (stereo not given), the GI50 in test [1], in test [2], in [3], in test [4], in test [5] and in test [6] was > 100 µM (inactive) each time. In addition, the GI50 in test [7], in test [8], in [9], in test [10], in test [11] and in test [12] was > 100 µM (inactive) each time. Further, the GI50 in test [13], in test [14], in test [15], in [16], in test [17] and in [18] was > 100 µM (inactive) each time. The GI50 in test [19] and in [20] was > 100 µM (inactive) in each case.
For `COc1cc(/C=N/N=C2NCCCN2)ccc1O`, the GI50 in test [1], in [2], in [3], in test [4], in test [5] and in test [6] was > 100 µM (inactive) throughout. The GI50 in test [7], in test [8], in test [9], in test [10], in [11] and in test [12] was > 100 µM (inactive) each time. The GI50 in test [13], in [14], in test [15], in test [16], in [17] and in [18] was > 100 µM (inactive) in each case. The GI50 in test [19] and in test [20] was > 100 µM (inactive) in each case.
As for `Oc1ncc(N(CCCl)CCCl)c(O)n1` [URACIL MUSTARD], the GI50 in test [1] is 14.1 µM (inactive); in test [2] it was 8.65 µM (inactive); in [3], 83 µM (inactive); in test [4] it was 48.2 µM (inactive); in test [5], 62.7 µM (inactive); in test [6] it was 64 µM (inactive). The GI50 in [7] was 14.6 µM (inactive); in test [8] it was 12.7 µM (inactive); in [9], 35.3 µM (inactive); in [10] it was 15.2 µM (inactive); in test [11], 47.3 µM (inactive); in test [12], 63 µM (inactive). For the same molecule, the GI50 was 6.7 µM (inactive) in test [13]; 2.1 µM (inactive) in test [14]; 1.43 µM (inactive) in [15]; 39.3 µM (inactive) in test [16]; 69.5 µM (inactive) in test [17]; 91 µM (inactive) in [18]. For the same molecule, the GI50 in [19] was 2.67 µM (inactive); in test [20], 23.3 µM (inactive).
Regarding `CCOC(=O)c1ccc(C(=O)/C(C#N)=C2\CCCN2C)[nH]1`, the GI50 in [1], in [2], in [3], in test [4], in test [5] and in test [6] was > 100 µM (inactive) in each case. The GI50 in [7], in [8], in test [9], in test [10], in [11] and in test [12] was > 100 µM (inactive) throughout. Also, the GI50 in test [13], in test [14], in test [15], in [16], in test [17] and in test [18] was > 100 µM (inactive) throughout. The GI50 in test [19] and in test [20] was > 100 µM (inactive) in each case.
Regarding `CCO/N=C(/CC)c1ccc(Br)s1`, the GI50 is 80.5 µM (inactive) in [1]; > 100 µM (inactive) in test [2]; > 100 µM (inactive) in test [3]; > 100 µM (inactive) in test [4]; > 100 µM (inactive) in test [5]; > 100 µM (inactive) in test [6]. For the same molecule, the GI50 in test [7], in test [8], in test [9], in test [10], in [11] and in test [12] was > 100 µM (inactive) throughout. In addition, the GI50 in test [13] is > 100 µM (inactive); in [14], > 100 µM (inactive); in [15], 33 µM (inactive); in test [16], > 100 µM (inactive); in test [17], > 100 µM (inactive); in test [18] it was > 100 µM (inactive). Further, the GI50 in test [19] and in [20] was > 100 µM (inactive) each time.
As to `Cn1cc(-c2cnc(-c3cn(C)c4ccccc34)cn2)c2ccccc21`, the GI50 is 5.2 µM (inactive) in [1]; 8.85 µM (inactive) in [2]; 11.6 µM (inactive) in test [3]; 6.31 µM (inactive) in [4]; 5.61 µM (inactive) in test [5]; 0.811 µM (active) in test [6]. The GI50 was 0.194 µM (active) in [7]; 5.48 µM (inactive) in [8]; 3.19 µM (inactive) in test [9]; 4.06 µM (inactive) in [10]; 4.79 µM (inactive) in test [11]; 3.26 µM (inactive) in test [12]. Also, the GI50 in test [13] was 2.86 µM (inactive); in [14], 0.448 µM (active); in test [15], 2.72 µM (inactive); in test [16] it was 14 µM (inactive); in test [17], 4.69 µM (inactive); in [18], 2.57 µM (inactive). The GI50 in test [19] is 5.83 µM (inactive); in test [20], 6.21 µM (inactive).
`CCS(=O)(=O)CCn1cnc2c1c(=O)n(C)c(=O)n2C`: the GI50 in test [1], in test [2], in test [3], in [4], in test [5] and in [6] was > 100 µM (inactive) throughout. In addition, the GI50 in test [7], in test [8], in [9], in test [10], in [11] and in [12] was > 100 µM (inactive) throughout. For the same molecule, the GI50 in test [13], in test [14], in test [15], in test [16], in [17] and in [18] was > 100 µM (inactive) in each case. Further, the GI50 in test [19] and in [20] was > 100 µM (inactive) in each case.
Turning to `CC(=O)Nn1cnc(C(=N)C#N)c1N`, the GI50 in [1], in test [2], in test [3], in [4], in test [5] and in test [6] was > 100 µM (inactive) throughout. In addition, the GI50 in test [7], in test [8], in test [9], in [10], in test [11] and in test [12] was > 100 µM (inactive) each time. In addition, the GI50 in test [13], in test [14], in [15], in test [16], in test [17] and in [18] was > 100 µM (inactive) throughout. Also, the GI50 in [19] and in test [20] was > 100 µM (inactive) in each case.
Regarding `CCOC(=O)C(Cc1ccc(N(CCCl)CCCl)cc1)NC(=O)C(Cc1ccccc1)NC(C)=O` (stereo not given), the GI50 was 0.111 µM (active) in test [1]; 0.155 µM (active) in [2]; 0.0159 µM (active) in [3]; > 1 µM (active) in test [4]; > 1 µM (active) in [5]; 0.264 µM (active) in test [6]. The GI50 is 0.163 µM (active) in test [7]; 0.126 µM (active) in test [8]; 0.236 µM (active) in test [9]; > 0.316 µM (active) in [10]; 0.106 µM (active) in test [11]; 0.213 µM (active) in [12]. The GI50 is 0.136 µM (active) in test [13]; 0.0353 µM (active) in test [14]; 0.0908 µM (active) in test [15]; > 0.293 µM (active) in test [16]; > 0.288 µM (active) in test [17]; > 0.368 µM (active) in test [18]. Further, the figures for the GI50 in test [19] and in test [20] were 0.0255 µM (active) and > 0.569 µM (active), respectively.

For the origin of these results see ChEMBL document CHEMBL1201862, “PubChem BioAssay data set” (2004).
